Assay results: US10710978B2, “STK4 inhibitors for treatment of hematologic malignancies” (Dana-Farber Cancer Institute, Inc., priority 2015, dated 2020)
Like-named read-outs stand apart in the source and are kept apart here.

What was measured:
Assay in all cases: KiNativ assay
Type in all cases: binding
ATR = ATR (Homo sapiens (Human), UniProt Q13535); details: H929 live cell
Description: (§1) Biochemical IC50s of the compounds of the present disclosure against various kinases were measured in a KiNativ assay. Compounds were screened in duplicate at 10 μM in H929 live cell. IC50 was measured via Mass spectroscopy (MS).

AurA, AurB, AurC = details: H929 live cell
Description: as §1

AurB = AurB (Homo sapiens (Human), UniProt Q96GD4); details: H929 live cell
AurB, sequence (Q96GD4 whole entry): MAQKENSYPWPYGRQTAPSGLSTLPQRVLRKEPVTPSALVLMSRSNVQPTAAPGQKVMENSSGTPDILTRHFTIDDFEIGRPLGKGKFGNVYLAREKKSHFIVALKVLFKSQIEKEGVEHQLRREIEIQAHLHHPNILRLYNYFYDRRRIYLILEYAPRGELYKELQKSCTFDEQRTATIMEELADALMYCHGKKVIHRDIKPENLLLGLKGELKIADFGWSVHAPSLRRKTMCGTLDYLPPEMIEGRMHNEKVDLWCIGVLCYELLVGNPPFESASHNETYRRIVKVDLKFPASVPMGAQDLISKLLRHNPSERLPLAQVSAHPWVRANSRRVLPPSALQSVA
Description: as §1

CDK7 = CDK7 (Homo sapiens (Human), UniProt P50613); details: H929 live cell
Description: as §1

CHK2 = CHK2 (Homo sapiens (Human), UniProt O96017); details: H929 live cell
Description: as §1

CaMKK2 = CaMKK2 (Homo sapiens (Human), UniProt Q96RR4); details: H929 live cell
Description: as §1

Erk1 = Erk1 (Homo sapiens (Human), UniProt P27361); details: H929 live cell
Description: as §1

FRAP = FRAP (Homo sapiens (Human), UniProt P42345); details: H929 live cell
Description: as §1

FYN, SRC, YES = details: H929 live cell
Description: as §1

GCK = GCK (Homo sapiens (Human), UniProt Q12851); details: H929 live cell
Description: as §1

GSK3A = GSK3A (Homo sapiens (Human), UniProt P49840); details: H929 live cell
Description: as §1

JAK1 domain2 = JAK1 domain2 (Homo sapiens (Human), UniProt P23458); details: H929 live cell
Description: as §1

KHS1 = KHS1 (Homo sapiens (Human), UniProt Q9Y4K4); details: H929 live cell
Description: as §1

KSR1, KSR2 = details: H929 live cell
Description: as §1

LOK = LOK (Homo sapiens (Human), UniProt O94804); details: H929 live cell
Description: as §1

MARK2 = MARK2 (Homo sapiens (Human), UniProt Q7KZI7); details: H929 live cell
Description: as §1

MST2 = MST2 (Homo sapiens (Human), UniProt Q13188); details: H929 live cell
Description: as §1

NDR1 = NDR1 (Homo sapiens (Human), UniProt Q15208); details: H929 live cell
Description: as §1

NuaK1 = NuaK1 (Homo sapiens (Human), UniProt O60285); details: H929 live cell
NuaK1, sequence (O60285 whole entry): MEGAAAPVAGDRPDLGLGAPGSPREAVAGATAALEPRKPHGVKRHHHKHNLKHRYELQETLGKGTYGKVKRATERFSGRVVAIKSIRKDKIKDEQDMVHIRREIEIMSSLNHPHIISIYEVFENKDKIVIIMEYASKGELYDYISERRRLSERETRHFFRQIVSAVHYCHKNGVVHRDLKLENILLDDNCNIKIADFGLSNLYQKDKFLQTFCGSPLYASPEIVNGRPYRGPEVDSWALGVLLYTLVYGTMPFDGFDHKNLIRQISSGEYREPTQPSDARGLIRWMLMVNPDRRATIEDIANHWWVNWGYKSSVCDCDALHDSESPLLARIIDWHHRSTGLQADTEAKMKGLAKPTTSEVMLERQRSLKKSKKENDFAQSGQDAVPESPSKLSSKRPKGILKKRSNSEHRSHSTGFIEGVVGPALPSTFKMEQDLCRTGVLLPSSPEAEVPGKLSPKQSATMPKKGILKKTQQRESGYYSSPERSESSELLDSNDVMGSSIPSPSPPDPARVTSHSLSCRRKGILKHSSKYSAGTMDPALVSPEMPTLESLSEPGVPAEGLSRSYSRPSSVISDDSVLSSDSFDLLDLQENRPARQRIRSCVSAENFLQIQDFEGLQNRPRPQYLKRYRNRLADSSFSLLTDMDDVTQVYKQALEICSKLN
Description: as §1

PI4KB = PI4KB (Homo sapiens (Human), UniProt Q9UBF8); details: H929 live cell
Description: as §1

PIP4K2C = PIP4K2C (Homo sapiens (Human), UniProt Q8TBX8); details: H929 live cell
Description: as §1

PITSLRE = details: H929 live cell
Description: as §1

PKCi = PKCi (Homo sapiens (Human), UniProt P41743); details: H929 live cell
Description: as §1

PRP4 = PRP4 (Homo sapiens (Human), UniProt Q13523); details: H929 live cell
Description: as §1

[1] = tested on: RSK1 domain1, RSK2 domain1, RSK3 domain1; details: H929 live cell
Description: as §1

RSK2 domain2 = RSK2 domain2 (Homo sapiens (Human), UniProt P51812); details: H929 live cell
Description: as §1

RSKL1 = RSKL1 (Homo sapiens (Human), UniProt Q96S38); details: H929 live cell
Description: as §1

SGK3 = SGK3 (Homo sapiens (Human), UniProt Q96BR1); details: H929 live cell
SGK3, sequence (Q96BR1 whole entry): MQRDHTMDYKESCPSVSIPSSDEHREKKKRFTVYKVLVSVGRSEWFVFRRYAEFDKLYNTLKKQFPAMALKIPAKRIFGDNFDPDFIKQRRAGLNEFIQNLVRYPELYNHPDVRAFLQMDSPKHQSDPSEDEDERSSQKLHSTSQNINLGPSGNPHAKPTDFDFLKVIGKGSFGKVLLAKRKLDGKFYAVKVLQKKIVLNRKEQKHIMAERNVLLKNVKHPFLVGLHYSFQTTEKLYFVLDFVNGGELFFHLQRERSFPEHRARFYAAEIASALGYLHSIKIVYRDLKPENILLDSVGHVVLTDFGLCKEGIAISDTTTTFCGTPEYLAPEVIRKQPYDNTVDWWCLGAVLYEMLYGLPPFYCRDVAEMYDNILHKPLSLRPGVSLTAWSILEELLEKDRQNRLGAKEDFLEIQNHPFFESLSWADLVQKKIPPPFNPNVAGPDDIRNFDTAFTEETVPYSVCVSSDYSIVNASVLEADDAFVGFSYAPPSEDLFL
Description: as §1

TAO1, TAO3 = details: H929 live cell
Description: as §1

TLK1 = TLK1 (Homo sapiens (Human), UniProt Q9UKI8); details: H929 live cell
Description: as §1

TYK2 domain2 = TYK2 domain2 (Homo sapiens (Human), UniProt P29597); details: H929 live cell
Description: as §1

p38a = p38a (Homo sapiens (Human), UniProt Q16539); details: H929 live cell, range class, read-out: % inhibition
Procedure, shortened: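 Compounds were tested in duplicate at 10 μM in live H929 cells, and kinase engagement was profiled by KiNativ with mass spectrometry read-out to derive IC50.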

p70S6K = p70S6K (Homo sapiens (Human), UniProt P23443); details: H929 live cell
Description: as §1

p70S6Kb = p70S6Kb (Homo sapiens (Human), UniProt Q9UBS0); details: H929 live cell
Description: as §1

[2] = range class, read-out: % inhibition

ATR, sequence (Q13535 whole entry): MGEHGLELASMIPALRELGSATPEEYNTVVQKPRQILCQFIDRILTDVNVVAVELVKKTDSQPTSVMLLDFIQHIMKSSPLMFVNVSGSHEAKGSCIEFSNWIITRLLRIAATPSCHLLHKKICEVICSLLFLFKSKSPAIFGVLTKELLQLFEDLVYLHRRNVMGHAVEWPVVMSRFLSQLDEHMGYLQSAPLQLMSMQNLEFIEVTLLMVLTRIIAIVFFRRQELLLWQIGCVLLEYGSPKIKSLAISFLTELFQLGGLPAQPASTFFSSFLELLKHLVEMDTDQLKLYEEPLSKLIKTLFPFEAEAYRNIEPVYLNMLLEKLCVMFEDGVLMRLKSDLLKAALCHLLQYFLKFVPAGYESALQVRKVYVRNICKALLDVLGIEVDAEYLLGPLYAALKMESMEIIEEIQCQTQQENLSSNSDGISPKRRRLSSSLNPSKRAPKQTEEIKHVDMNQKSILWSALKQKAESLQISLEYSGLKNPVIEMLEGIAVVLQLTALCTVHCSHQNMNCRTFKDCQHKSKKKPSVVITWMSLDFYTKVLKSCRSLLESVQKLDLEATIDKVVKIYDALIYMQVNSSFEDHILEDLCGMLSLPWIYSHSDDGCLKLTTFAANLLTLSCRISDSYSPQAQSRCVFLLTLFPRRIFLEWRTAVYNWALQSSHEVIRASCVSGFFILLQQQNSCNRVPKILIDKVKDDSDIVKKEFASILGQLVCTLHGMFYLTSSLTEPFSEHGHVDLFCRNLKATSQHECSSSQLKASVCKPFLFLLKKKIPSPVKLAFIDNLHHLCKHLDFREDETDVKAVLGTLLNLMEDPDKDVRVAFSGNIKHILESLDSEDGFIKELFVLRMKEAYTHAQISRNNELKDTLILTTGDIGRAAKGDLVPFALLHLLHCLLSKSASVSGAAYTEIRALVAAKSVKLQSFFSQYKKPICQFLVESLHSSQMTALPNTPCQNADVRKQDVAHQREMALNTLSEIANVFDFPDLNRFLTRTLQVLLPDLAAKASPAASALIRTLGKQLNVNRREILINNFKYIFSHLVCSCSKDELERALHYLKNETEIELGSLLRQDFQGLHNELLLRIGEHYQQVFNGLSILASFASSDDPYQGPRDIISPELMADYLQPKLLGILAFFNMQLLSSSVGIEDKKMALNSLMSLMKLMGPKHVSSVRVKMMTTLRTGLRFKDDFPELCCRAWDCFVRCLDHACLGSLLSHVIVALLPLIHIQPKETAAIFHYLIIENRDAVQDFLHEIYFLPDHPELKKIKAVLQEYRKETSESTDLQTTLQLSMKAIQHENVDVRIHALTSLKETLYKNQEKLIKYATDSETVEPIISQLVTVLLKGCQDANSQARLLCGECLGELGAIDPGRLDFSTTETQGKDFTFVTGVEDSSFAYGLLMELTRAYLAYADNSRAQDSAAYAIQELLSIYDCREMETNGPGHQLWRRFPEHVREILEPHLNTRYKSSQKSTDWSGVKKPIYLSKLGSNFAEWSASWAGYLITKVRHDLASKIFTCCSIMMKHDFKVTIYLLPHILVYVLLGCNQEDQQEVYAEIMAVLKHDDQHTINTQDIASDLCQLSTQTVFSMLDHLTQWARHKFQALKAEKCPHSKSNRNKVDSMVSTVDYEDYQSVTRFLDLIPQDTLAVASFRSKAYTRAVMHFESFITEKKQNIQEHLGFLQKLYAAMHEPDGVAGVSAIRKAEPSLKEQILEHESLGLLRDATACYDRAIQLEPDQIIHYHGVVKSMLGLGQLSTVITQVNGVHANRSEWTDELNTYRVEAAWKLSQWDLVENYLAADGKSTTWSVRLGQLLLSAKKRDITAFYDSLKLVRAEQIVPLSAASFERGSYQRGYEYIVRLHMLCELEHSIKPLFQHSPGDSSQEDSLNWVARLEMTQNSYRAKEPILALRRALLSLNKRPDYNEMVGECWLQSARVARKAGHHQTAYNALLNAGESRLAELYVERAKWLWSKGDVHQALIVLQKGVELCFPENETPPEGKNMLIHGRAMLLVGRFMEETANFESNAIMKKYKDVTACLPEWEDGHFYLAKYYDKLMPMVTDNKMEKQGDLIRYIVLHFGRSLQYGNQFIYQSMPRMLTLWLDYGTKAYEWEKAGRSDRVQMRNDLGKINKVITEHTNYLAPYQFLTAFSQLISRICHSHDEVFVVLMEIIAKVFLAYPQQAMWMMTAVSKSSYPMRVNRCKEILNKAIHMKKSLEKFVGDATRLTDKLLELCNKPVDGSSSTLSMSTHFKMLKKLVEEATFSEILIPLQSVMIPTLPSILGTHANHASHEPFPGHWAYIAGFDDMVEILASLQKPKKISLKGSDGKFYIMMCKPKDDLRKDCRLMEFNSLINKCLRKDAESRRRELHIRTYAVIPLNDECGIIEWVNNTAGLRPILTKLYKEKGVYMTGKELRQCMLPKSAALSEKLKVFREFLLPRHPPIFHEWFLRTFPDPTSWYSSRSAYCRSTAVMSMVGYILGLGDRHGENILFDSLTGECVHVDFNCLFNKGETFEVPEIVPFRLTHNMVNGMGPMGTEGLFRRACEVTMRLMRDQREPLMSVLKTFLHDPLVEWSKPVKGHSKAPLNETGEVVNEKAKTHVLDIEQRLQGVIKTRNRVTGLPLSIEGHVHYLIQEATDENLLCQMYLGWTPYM
ATR, sequence (Q8WXE1 whole entry partner): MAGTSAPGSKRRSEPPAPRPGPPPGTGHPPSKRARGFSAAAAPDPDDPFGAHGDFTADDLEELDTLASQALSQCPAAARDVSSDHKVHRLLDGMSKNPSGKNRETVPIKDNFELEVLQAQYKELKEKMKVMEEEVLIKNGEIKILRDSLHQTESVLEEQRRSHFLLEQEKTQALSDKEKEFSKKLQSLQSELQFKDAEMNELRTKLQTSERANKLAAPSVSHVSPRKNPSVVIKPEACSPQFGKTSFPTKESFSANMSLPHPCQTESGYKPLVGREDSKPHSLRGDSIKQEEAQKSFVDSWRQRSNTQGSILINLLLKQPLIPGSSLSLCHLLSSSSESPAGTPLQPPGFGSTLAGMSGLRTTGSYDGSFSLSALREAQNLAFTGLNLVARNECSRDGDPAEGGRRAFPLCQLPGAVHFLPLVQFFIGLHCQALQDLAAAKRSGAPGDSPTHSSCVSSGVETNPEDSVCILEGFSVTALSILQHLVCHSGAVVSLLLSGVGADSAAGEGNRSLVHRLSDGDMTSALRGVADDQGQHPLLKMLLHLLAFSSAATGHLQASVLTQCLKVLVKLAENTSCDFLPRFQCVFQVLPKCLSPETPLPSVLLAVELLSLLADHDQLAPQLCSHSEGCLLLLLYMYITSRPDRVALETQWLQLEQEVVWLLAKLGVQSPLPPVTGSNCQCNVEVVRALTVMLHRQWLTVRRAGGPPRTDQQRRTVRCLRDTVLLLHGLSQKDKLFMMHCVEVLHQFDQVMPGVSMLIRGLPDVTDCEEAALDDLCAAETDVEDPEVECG

In the case of `COc1cc(NS(=O)(=O)C2CC2)ccc1-c1cnc(N)c(-c2ccc3c(c2)CCNC3=O)c1` [Compound I-50, N-(4-(6-amino-5-(1-oxo-1,2,3,4-tetrahydroisoquinolin-6-yl)pyridin-3-yl)-3-methoxyphenyl) cyclopropanesulfonamide], the inhibition at 10 µM (ATR; [2]) is reported as 0%, the inhibition at 10 µM (ATR; read-out: inhibition (10 μM)) is reported as 17.1% and the “% inhibition” value (AurA, AurB, AurC; 10 μM, range class) is reported as 0.0%. The “inhibition (10 μM)” value (AurA, AurB, AurC) was 17.8%, the inhibition at 10 µM (AurB; [2]) was 0% and the inhibition at 10 µM (AurB; read-out: inhibition (10 μM)) was 7.7%. For the same compound, the inhibition at 10 µM (CDK7; [2]) was 0%, the inhibition at 10 µM (CDK7; read-out: inhibition (10 μM)) was 19.4% and the inhibition at 10 µM (CHK2; [2]) was 0%. The inhibition at 10 µM (CHK2; read-out: inhibition (10 μM)) was 19.3%, the inhibition at 10 µM (CaMKK2; [2]) was 75 to 90% and the inhibition at 10 µM (CaMKK2; read-out: inhibition (10 μM)) was 88.3%. The inhibition at 10 µM (Erk1; [2]) was 0%, the inhibition at 10 µM (Erk1; read-out: inhibition (10 μM)) was 29% and the inhibition at 10 µM (FRAP; [2]) was 0%. The inhibition at 10 µM (FRAP; read-out: inhibition (10 μM)) was 21.5%, the “% inhibition” value (FYN, SRC, YES; 10 μM, range class) was 0.0% and the “inhibition (10 μM)” value (FYN, SRC, YES) was −2.0%. It also gave an inhibition at 10 µM (GCK; [2]) of over 90%, an inhibition at 10 µM (GCK; read-out: inhibition (10 μM)) of 95.2% and an inhibition at 10 µM (GSK3A; [2]) of 75 to 90%. The inhibition at 10 µM (GSK3A; read-out: inhibition (10 μM)) was 77.4%, the inhibition at 10 µM (JAK1 domain2; [2]) was 0% and the inhibition at 10 µM (JAK1 domain2; read-out: inhibition (10 μM)) was -23.3%. For the same compound, the inhibition at 10 µM (KHS1; [2]) was 75 to 90%, the inhibition at 10 µM (KHS1; read-out: inhibition (10 μM)) was 77.8% and the “% inhibition” value (KSR1, KSR2; 10 μM, range class) was 0.0%. The “inhibition (10 μM)” value (KSR1, KSR2) was −18.4%, the inhibition at 10 µM (LOK; [2]) was over 90% and the inhibition at 10 µM (LOK; read-out: inhibition (10 μM)) was 91.6%. The inhibition at 10 µM (MARK2; [2]) was 0%, the inhibition at 10 µM (MARK2; read-out: inhibition (10 μM)) was -8.6% and the inhibition at 10 µM (MST2; [2]) was over 90%. It also gave an inhibition at 10 µM (MST2; read-out: inhibition (10 μM)) of 97.5%, an inhibition at 10 µM (NDR1; [2]) of 0% and an inhibition at 10 µM (NDR1; read-out: inhibition (10 μM)) of 20.2%. For the same compound, the “inhibition (10 μM)” value (NuaK1) was 61.5%, the inhibition at 10 µM (NuaK1; [2]) was 50 to 75% and the inhibition at 10 µM (NuaK1; read-out: inhibition (10 μM)) was 67.9%. For the same compound, the inhibition at 10 µM (PI4KB; [2]) was 0%, the inhibition at 10 µM (PI4KB; read-out: inhibition (10 μM)) was 0% and the inhibition at 10 µM (PIP4K2C; [2]) was over 90%. For the same compound, the inhibition at 10 µM (PIP4K2C; read-out: inhibition (10 μM)) was 90.6%, the “% inhibition” value (PITSLRE; 10 μM, range class) was 0.0% and the “inhibition (10 μM)” value (PITSLRE) was −27.6%. The inhibition at 10 µM (PKCi; [2]) was 0%, the inhibition at 10 µM (PKCi; read-out: inhibition (10 μM)) was -15% and the inhibition at 10 µM (PRP4; [2]) was 0%. The inhibition at 10 µM (PRP4; read-out: inhibition (10 μM)) was -17.9%, the “% inhibition” value ([1]; 10 μM, range class) was 0.0% and the “inhibition (10 μM)” value [1] was 15.8%. It also gave an inhibition at 10 µM (RSK2 domain2; [2]) of 0%, an inhibition at 10 µM (RSK2 domain2; read-out: inhibition (10 μM)) of -1.4% and an inhibition at 10 µM (RSKL1; [2]) of 0%. It also gave an inhibition at 10 µM (RSKL1; read-out: inhibition (10 μM)) of 3.2%, an inhibition at 10 µM (SGK3; [2]) of 0% and an inhibition at 10 µM (SGK3; read-out: inhibition (10 μM)) of 11.2%. The “% inhibition” value (TAO1, TAO3; 10 μM, range class) was 0.0%, the “inhibition (10 μM)” value (TAO1, TAO3) was 17.8% and the inhibition at 10 µM (TLK1; [2]) was 0%. It also gave an inhibition at 10 µM (TLK1; read-out: inhibition (10 μM)) of -7.5%, an inhibition at 10 µM (TYK2 domain2; [2]) of 0% and an inhibition at 10 µM (TYK2 domain2; read-out: inhibition (10 μM)) of -21%. For the same compound, the inhibition at 10 µM (p38a) was 0%, the inhibition at 10 µM (p70S6K; [2]) was 0% and the inhibition at 10 µM (p70S6K; read-out: inhibition (10 μM)) was 2.4%. The inhibition at 10 µM (p70S6Kb; [2]) was 0% and the inhibition at 10 µM (p70S6Kb; read-out: inhibition (10 μM)) was 14%.
